Data published in US20250188042A1, “HETEROCYCLIC COMPOUND, PREPARATION METHOD THEREFOR, AND USE THEREOF” (SICHUAN UNIVERSITY, priority 2023, published 2025).

How the values were obtained:
Format in all cases: cell-based
[1] = test system: HSC-3; assay: CCK8 proliferation assay on squamous cell carcinoma cell line HSC-3; conditions: Homo sapiens, first of two lines listed (HSC-3, HSC-4), 48 h, read-out: IC50 against SCC cells (first of two SCC cells)
Protocol: (§1) Squamous cell carcinoma cell lines: HSC-3, HSC-4.
(§2) The above two tumor cell lines were cultured in a standardized incubator at 37° C. under 5% CO2; the cells in logarithmic growth phase were digested and counted, followed by seeding in a 96-well plate at 3000 cells/well, and then cultured overnight in an incubator. The stock solution of each compound was prepared using DMSO at a concentration of 10 mM, and diluted sequentially (0, 1.25, 2.5, 5, 10 μM) before treating the cells. The control group was added with the highest concentration of DMSO, and then cultivated continuously in an incubator for 48 h. The CCK8 cell proliferation kit was used to detect the effect of each compound on the proliferation of tumor cells. Moreover, the experimental results of representative compounds were analyzed, and their IC50 values were calculated to evaluate the effect of the compounds on the proliferation of tumor cells.

[2] = test system: HSC-4; assay: CCK8 proliferation assay on squamous cell carcinoma cell line HSC-4; conditions: Homo sapiens, second of two lines listed (HSC-3, HSC-4), 48 h, read-out: IC50 against SCC cells (second of two SCC cells)
Protocol: as §1, §2

[3] = test system: SCC cells; assay: CCK8 proliferation assay on SCC cells (cell line not specified); conditions: SCC cell line not stated (HSC-3 or HSC-4), 48 h, read-out: IC50 against SCC cells
Protocol: as §1, §2

Row | Compound | IC50 [1] | IC50 [2] | IC50 [3]
1 | O=C(CCn1ccc(=O)n(CCC(=O)Nc2ccc(C34CC5CC(CC(C5)C3)C4)cc2)c1=O)Nc1ccc(C23CC4CC(CC(C4)C2)C3)cc1 [Compound 8a] | 4.85 µM | 9.87 µM | 
2 | CCc1cn(CCC(=O)Nc2ccc(C34CC5CC(CC(C5)C3)C4)cc2)c(=O)n(CCC(=O)Nc2ccc(C34CC5CC(CC(C5)C3)C4)cc2)c1=O [Compound 10a] |  |  | 6.18 µM
3 | N#Cc1cn(CCC(=O)Nc2ccc(C34CC5CC(CC(C5)C3)C4)cc2)c(=O)n(CCC(=O)Nc2ccc(C34CC5CC(CC(C5)C3)C4)cc2)c1=O [Compound 12a] |  |  | 9.54 µM
4 | COc1cn(CCC(=O)Nc2ccc(C34CC5CC(CC(C5)C3)C4)cc2)c(=O)n(CCC(=O)Nc2ccc(C34CC5CC(CC(C5)C3)C4)cc2)c1=O [Compound 14a] |  |  | 6.18 µM
5 | O=C(CCn1cc(Cl)c(=O)n(CCC(=O)Nc2ccc(C34CC5CC(CC(C5)C3)C4)cc2)c1=O)Nc1ccc(C23CC4CC(CC(C4)C2)C3)cc1 [Compound 16a] |  |  | 9.66 µM
6 | O=C(CCn1cc(Br)c(=O)n(CCC(=O)Nc2ccc(C34CC5CC(CC(C5)C3)C4)cc2)c1=O)Nc1ccc(C23CC4CC(CC(C4)C2)C3)cc1 [Compound 18a] |  |  | 4.85 µM
7 | O=C(CCn1cc(I)c(=O)n(CCC(=O)Nc2ccc(C34CC5CC(CC(C5)C3)C4)cc2)c1=O)Nc1ccc(C23CC4CC(CC(C4)C2)C3)cc1 [Compound 20a] |  |  | 4.86 µM
8 | Nc1ccn(CCC(=O)Nc2ccc(C34CC5CC(CC(C5)C3)C4)cc2)c(=O)n1 [Compound 24] |  |  | 1.48 µM
